Experimental findings from patent US10167299B2, “1-(3-aminopropyl) substituted cyclic amine compounds, preparation method therefor, and pharmaceutical compositions and uses thereof” (SHANGHAI INSTITUTE OF MATERIA MEDICA, CHINESE ACADEMY OF …, priority 2013, dated 2019) are described below.

Values after ≈ are worked out from the molar mass of the structure shown. Bounds are passed on as bounds.

Data set [1] can be described thus: Cytotoxicity (CC50) in TZM-bl cells. The class given is cell-based. The conditions noted are these: human.
The test system of data set [2] is HIV-1SF162 virus strain. Kind of data set: Inhibition of viral replication in PBMC infected with HIV-1SF162. The class given is cell-based. The protocol:
(§1) The virus was titrated according to the modified method of Johnson & Byington. Briefly, the HIV-1 stock solution was subject to four-fold dilution in a 96-well plate (ten gradients) sextuplicate for each gradient, while setting six control-wells. Into each well was added 100 μl (5×10^6/ml) PHA-stimulated PBMC cells and final volume per well was 200 μl. The cells were cultured at 37° C. with 5% CO2. […] On the seventh day, the infected supernatant was collected and lysed with 0.5% Triton X100. The p24 antigen was detected by ELISA and TCID50 of virus was calculated according to Reed & Muench method (50% Tissue culture infection dose).
(§2) The starting concentration was 1 μM, six dilutions were obtained, and each well contained 200 μl mixture. While wells not containing drugs were set as control. […] After homogeneously mixed, the mixture was immediately added to 48-well plate containing diluted drug and each well was added with 200 μl of mixture. MVC was used as positive control. The cells were cultured at 37° C. with 5% CO2 for seven days (drug with the same concentration was added on the third day). The supernatant was collected, lysed and inactivated with 0.5% Triton X-100. The inhibition effect of drug on HIV-1 replication was detected using p24 antigen capture ELISA method.

Data set [3] deals with HIV-1KM018 virus strain. The data set can be described thus: Inhibition of viral replication in PBMC infected with HIV-1KM018. The conditions noted are these: Human immunodeficiency virus 1, PBMC. The class given is cell-based. The protocol:
as §1, §2

For data set [4], the system named is HIV-1Ba-L virus strain. Kind of data set: Inhibition of viral replication in PBMC infected with HIV-1Ba-L. The class given is cell-based. The protocol: The virus was titrated according to the modified method of Johnson & Byington. Briefly, the HIV-1 stock solution was subject to four-fold dilution in a 96-well plate (ten gradients) sextuplicate for each gradient, while setting six control-wells. Into each well was added 100 μl (5×10^6/ml) PHA-stimulated PBMC cells and final volume per well was 200 μl. The cells were cultured at 37° C. with 5% CO2. On the third day, 100 μl of fresh RPMI-1640 complete medium was supplemented. On the seventh day, the infected supernatant was collected and lysed with 0.5% Triton X100. The p24 antigen was detected by ELISA and TCID50 of virus was calculated according to Reed & Muench method (50% Tissue culture infection dose).
The compound to be tested was subject to 5-fold dilution in 48-well plate with RPMI-1640 complete medium (containing 10% FBS). The starting concentration was 1 μM, six dilutions were obtained, and each well contained 200 μl mixture. While wells not containing drugs were set as control. Virus (MOI=0.01) was added to 5×10^6/ml of PBMC cells which have been stimulated by PHA for 72 h. After homogeneously mixed, the mixture was immediately added to 48-well plate containing diluted drug and each well was added with 200 μl of mixture. MVC was used as positive control. The cells were cultured at 37° C. with 5% CO2 for seven days (drug with the same concentration was added on the third day). The supernatant was collected, lysed and inactivated with 0.5% Triton X-100. The inhibition effect of drug on HIV-1 replication was detected using p24 antigen capture ELISA method.

Data set [5] is described as follows: Toxicity test of compounds on PBMC cells (MTT). The conditions noted are these: human; PBMC cells (Table 4). The class given is cell-based. The protocol:
(§3) The compound to be tested was subject to 5-fold dilution in a 96-well microtiter plate with RPMI-1640 or DMEM complete medium (containing 10% FBS) (Six dilution) triplicate for each dilution and 100 μl for each well. While wells not containing drugs were set as control. Into each well was added 100 μl of 4×10^5/ml PM1, HOS-CD4-CCR5 cells or 100 μl of 5×10^6/ml PHA stimulated PBMC. The cells were cultured at 37° C. with 5% CO2 for three days (PBMC cells were cultured for seven days and 100 μl of fresh RPMI-1640 complete medium was supplemented on the third day). Cytotoxicity was tested with MTT assay. OD values were measured by ELx800 microplate reader. The detection wavelength was 570 nm, and the reference wavelength was 630 nm.

Data set [6] concerns HIV-1Ba-L virus strain. Kind of data set: Inhibition of viral replication in HOS-CD4-CCR5 cells infected with HIV-1Ba-L. The class given is cell-based. The protocol:
(§4) On the day before the test, 1×10^5/ml of HOS-CD4-CCR5 cells were inoculated in 96-well plates with 100 μl for each well. The compound to be tested was subject to 5-fold dilution in 96-well microtiter plate with DMEM complete medium (containing 10% FBS). The starting concentration was 1 μM and six dilutions were obtained. Triplicate wells were set for each dilution and each well contained 100 μl mixture. While wells not containing drugs were set as control. The supernatant was removed and 100 μl of drug was added and incubated for 2 h. Then 100 μl of HIV-1SF162 and HIV-1Ba-L were added to dilute supernatant. The cells were infected for 1 h, free virus was washed out and drug with the same final concentration was added. MVC was used as positive control. The cells were cultured at 37° C. with 5% CO2 for three days. The supernatant was collected, lysed and inactivated with 0.5% Triton X-100. The inhibition effect of drug on HIV-1 replication was detected using p24 antigen capture ELISA method.

Data set [7] concerns HIV-1SF162 virus strain. Kind of data set: Inhibition of viral replication in HOS-CD4-CCR5 cells infected with HIV-1SF162. The conditions noted are these: Human immunodeficiency virus 1, HOS-CD4-CCR5. The class given is cell-based. The protocol:
as §4

The nature of data set [8]: Toxicity test of compounds on HOS-CD4-CCR5 cells (MTT). The class given is cell-based. The conditions noted are these: human; HOS-CD4+-CCR5 cells (Table 7). The protocol:
as §3

Data set [9] concerns HIV-1SF162 virus strain. The data set can be described thus: Inhibition activity on TZM-bl cells infected with HIV-1SF162.
Data set [10] has as its target hERG (Homo sapiens (Human), UniProt Q12809).
Description: CHO-hERG cells which have been incubated overnight were added with sample buffer and incubated for 90 minutes at room temperature in darkness.
The sample buffer was removed and assay buffer was added.
The compound is added to the cell plate and incubated for 20 minutes in darkness.
Cell plate was placed into FDSS. The fluorescence signal was recorded every second for 10 seconds. Exciting buffer was added to the cells at the 10th second and the fluorescence signal was recorded every second for 180 seconds
For data set [11], the target named is CCR5 (Homo sapiens (Human), UniProt P51681). Kind of data set: Calcium flux inhibition experiment. The class given is cell-based. As to conditions: for IC50: HEK293/CCR5-Gα16 cell line, calcium flux, read-out: CCR5 IC50; for calcium influx inhibition effect in words, versus positive control compounds: conclusion from Table 1. Background: A change in cytosolic calcium serves as a functional read-out for many receptors and channels.
Chain of CCR5 (P51681 whole entry): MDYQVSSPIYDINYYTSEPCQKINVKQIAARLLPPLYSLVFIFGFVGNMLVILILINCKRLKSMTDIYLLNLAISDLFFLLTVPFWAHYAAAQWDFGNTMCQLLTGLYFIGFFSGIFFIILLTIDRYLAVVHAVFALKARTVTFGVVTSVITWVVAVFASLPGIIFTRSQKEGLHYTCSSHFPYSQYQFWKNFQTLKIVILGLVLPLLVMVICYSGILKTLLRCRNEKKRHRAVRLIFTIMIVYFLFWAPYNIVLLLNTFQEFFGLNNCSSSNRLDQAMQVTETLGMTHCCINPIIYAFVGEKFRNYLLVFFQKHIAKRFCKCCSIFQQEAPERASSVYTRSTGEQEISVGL

For data set [12], the system named is CCR5 protein. Kind of data set: Thermal stability of protein test (CPM-assay). The class given is binding. The conditions noted are these: for Tm (° C.): thermal stability of CCR5 protein with compound, CPM dye. The text has this:
Experimental theory: many cysteines are present in CCR5 protein sequence. Cysteines located in loop region form disulfide bonds to stabilize the tertiary structure of the protein. Some free cysteines in reduced state are located in the transmembrane region. Under excitation by incident light of 387 nm, the combination of free sulfhydryl and fluorescent dye CPM can emit excitation light of 436 nm. […] The free sulfhydryls originally located in the transmembrane region expose and combine with the fluorescent dye. And then the detector will detect changes in signal enhancement. Therefore, the thermal stability of membrane proteins can be determined according to the temperature (Tm) at the midpoint of changes in signal intensity.
Experimental steps: Upon preliminary purification, the obtained protein solution was transferred into a small concentration tube (100 kd, 500 ul) for concentration (1000 rcf, 12 min, 4° C.). After centrifugation, the concentration tube was taken out and flicked to prevent protein coagulation due to high local concentration. The final concentrated volume was about 50 μl. 117 μl of purified solution (volume is suitable to make the total volume up to 120 μl), 1 μl fluorescent dye cpm (in-house prepared) and 2 μl of concentrated protein solution (the amount of added protein is 3-5 μg according to the calculated concentration of the protein solution and the concentrated volume) were added to 2 ml Ependorf tube and incubated at room temperature for 20 min. And then the mixture was added to the cuvette (Qwan) and put in the testing equipment Cary, wherein the surface of the frosted glass faced out. The temperature was set in the range of 4-90° C. with 1° C. increase per minute and the program was run. Tm value can be obtained by processing the data and graph with a mapping software and can be used to compare the difference of protein thermal stability under different conditions.

Data set [13] has as its system TZM-bl cells. Kind of data set: Cytotoxicity (CC50) in TZM-bl cells. The class given is cell-based. As to conditions: TZM-bl cells (Table 3).
Where [14] appears, read: Human immunodeficiency virus 1, PBMC.
Where [15] appears, read: Human immunodeficiency virus 1, TZM-bl.
The mark [16] stands for this setting: TZM-bl cells infected with HIV-1SF162.

Chain of hERG (Q12809 whole entry): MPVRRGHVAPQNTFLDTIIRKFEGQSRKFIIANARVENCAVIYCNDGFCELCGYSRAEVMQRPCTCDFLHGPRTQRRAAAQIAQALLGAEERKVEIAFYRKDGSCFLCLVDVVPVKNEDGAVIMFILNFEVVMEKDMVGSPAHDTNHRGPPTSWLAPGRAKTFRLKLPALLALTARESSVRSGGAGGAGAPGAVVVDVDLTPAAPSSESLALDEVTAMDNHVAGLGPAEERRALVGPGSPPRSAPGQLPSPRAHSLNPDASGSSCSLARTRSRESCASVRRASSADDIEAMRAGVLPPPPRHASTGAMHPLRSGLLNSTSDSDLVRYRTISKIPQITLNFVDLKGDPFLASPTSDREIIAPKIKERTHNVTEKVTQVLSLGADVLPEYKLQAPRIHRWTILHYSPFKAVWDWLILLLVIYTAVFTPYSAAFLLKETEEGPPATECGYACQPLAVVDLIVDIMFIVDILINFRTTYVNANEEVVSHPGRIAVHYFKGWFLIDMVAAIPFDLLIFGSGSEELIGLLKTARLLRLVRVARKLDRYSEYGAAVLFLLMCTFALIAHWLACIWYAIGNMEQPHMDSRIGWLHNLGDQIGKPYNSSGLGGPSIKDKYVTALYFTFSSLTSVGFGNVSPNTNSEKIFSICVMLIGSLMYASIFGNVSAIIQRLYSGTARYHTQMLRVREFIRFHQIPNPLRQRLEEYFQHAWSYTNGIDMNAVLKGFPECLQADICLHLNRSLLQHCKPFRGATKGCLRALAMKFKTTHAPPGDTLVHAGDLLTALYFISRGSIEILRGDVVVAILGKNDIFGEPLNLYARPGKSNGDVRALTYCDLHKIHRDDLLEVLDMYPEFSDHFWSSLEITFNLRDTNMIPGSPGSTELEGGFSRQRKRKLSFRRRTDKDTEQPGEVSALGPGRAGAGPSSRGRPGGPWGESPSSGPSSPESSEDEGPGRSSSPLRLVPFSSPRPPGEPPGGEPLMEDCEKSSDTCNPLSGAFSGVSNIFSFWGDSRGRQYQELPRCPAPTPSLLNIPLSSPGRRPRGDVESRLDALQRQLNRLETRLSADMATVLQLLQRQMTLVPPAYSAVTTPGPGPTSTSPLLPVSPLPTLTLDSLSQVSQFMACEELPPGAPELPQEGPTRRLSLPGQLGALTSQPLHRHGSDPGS

Usually CC50 stands for the concentration at which the toxic effect on the cells reaches its halfway point. As a reminder, the EC50 is the midpoint of the concentration-response curve. For `Cc1nnc(C(C)C)n1C1CC2CCC(C1)N2CCC(NC(=O)C1CCC(F)(F)CC1)c1cccs1` (stereo not drawn) [Compound 3, 4,4-difluoro-N-[3-[exo-3-(3-isopropyl-5-methyl-4H-1,2,4-triazol-4-yl)-8-azabicyclo[3.2.1]octane-8-yl]-1-(thiophen-2-yl)propyl]cyclohexane-1-carboxamide], the CC50 at 3 days was above 100 µg/mL in data set [1] (TZM-bl cells (Table 3), read-out: CC50) and 334 µg/mL (≈ 643 µM) in [8]. Besides, the EC50 in data set [2] (setting [14]) came out at 0.146 µg/mL (≈ 0.281 µM); in data set [3], 0.0157 µg/mL (≈ 0.0301 µM); in data set [4] (setting [14]) it was 0.0912 µg/mL (≈ 0.176 µM); in data set [6] (Human immunodeficiency virus 1, HOS-CD4-CCR5) it was 0.0171 µg/mL (≈ 0.033 µM); in data set [7], 0.0244 µg/mL (≈ 0.047 µM); in [9] (setting [15]), 0.0024 µg/mL (≈ 0.00462 µM). The “therapeutic index (TI)” value in data set [2] (PBMC cells infected with HIV-1SF162) is 1874; in data set [4] (PBMC cells infected with HIV-1Ba-L), 3328.9; in data set [6] (HOS-CD4+-CCR5 cells infected with HIV-1Ba-L) it was 19495; in [9] (setting [16]), above 41666.67. In data set [5], this compound had a CC50 at 7 days of 273 µg/mL (≈ 526 µM). Besides, the “cytotoxicity in vitro and therapeutic index in words, versus positive control compound” value in data set [9] (TZM-bl cells infected with HIV-1SF162, conclusion from Table 3) is recorded as “better than positive control compound”.
As for `CC(=O)N[C@@H](CCN1C2CCC1CC(n1c(C)nnc1C(C)C)C2)c1cccs1` (stereo partly drawn) [Compound 12, N-[(1S)-3-[exo-3-(3-isopropyl-5-methyl-4H-1,2,4-triazol-4-yl)-8-azabicyclo[3.2.1]octane-8-yl]-1-(thiophen-2-yl)propyl]acetamide], the “hERG inhibition activity in words, versus positive control compounds” value in [10] is listed as “better that those of positive control compounds”.
By IC50 is commonly meant the midpoint of a concentration-inhibition curve. Consider `Cc1nnc(C(C)C)n1C1CC2CCC(C1)N2CC[C@H](NC(=O)C1CCCCC1)c1cccnc1` (stereo partly drawn) [Compound 8, N-[(1S)-3-[exo-3-(3-isopropyl-5-methyl-4H-1,2,4-triazol-4-yl)-8-azabicyclo[3.2.1]octane-8-yl]-1-(pyridin-3-yl)propyl]cyclohexane-1-carboxamide], for which the half-inhibitory concentration (IC50) in data set [11] turned out to be 21.9 nM. Besides, the “Tm (° C.)” value in [12] was determined as 60.61 °C. In data set [1], the CC50 is above 100 µg/mL. Further, in data set [10], the “hERG inhibition activity in words, versus positive control compounds” value is “better that those of positive control compounds”. Further, the 50% effective concentration (EC50) in data set [9] (setting [15]) is 2.69 µg/mL (≈ 5.62 µM). In addition, the “therapeutic index (TI)” value in [9] (setting [16]) was above 37.17.
In the case of “4-ethyl-N-[(1S)-3-[exo-3-(3-isopropyl-5-methyl-4H-1,2,4-triazol-4-yl)-8-azabicyclo[3.2.1]octane-8-yl]-1-(thiophen-3-yl)propyl]cyclopentane-1-carboxamide [Compound 20]”, in [11], the IC50 was determined as 5.14 nM and the “calcium influx inhibition effect in words, versus positive control compounds” value is on record as “better than the positive control compounds”. Further, the “protein stability effect in words, versus positive control compound” value in data set [12] (conclusion from Table 2) is given as “comparable with the positive control compound”. Also, in data set [12], the “Tm (° C.)” value stood at 70.27 °C. Besides, the “CC50” value in data set [13] was found to be 69.68 µg/mL. Also, in data set [10], the IC50 was 14400 nM and the “hERG inhibition activity in words, versus positive control compounds” value was “better that those of positive control compounds”. For the same compound, in data set [9] (setting [16]), the concentration giving a half-maximal response (EC50) stood at 0.00487 µg/mL and the “therapeutic index (TI)” value is 14308.01.
On to “4,4-difluoro-N-[(1S)-3-[exo-3-(3-isopropyl-5-methyl-4H-1,2,4-triazol-4-yl)-8-azabicyclo[3.2.1]octane-8-yl]-1-(pyridin-3-yl)propyl]cyclohexane-1-carboxamide [Compound 6]”, for which, in data set [11], the IC50 amounted to 6.9 nM and the “calcium influx inhibition effect in words, versus positive control compounds” value was “better than the positive control compounds”. Moreover, in data set [12], the “Tm (° C.)” value was 58.56 °C. Besides, in data set [13], the “CC50” value was above 100 µg/mL. For the same compound, in [9] (setting [16]), the “EC50” value was determined as 1.51 µg/mL and the “therapeutic index (TI)” value is given as 66.23.
For the compound `Cc1nnc(C(C)C)n1[C@@H]1C[C@H]2CC[C@@H](C1)N2CC[C@H](NC(=O)C1CCC(F)(F)CC1)c1cccc(F)n1` [Compound 34, 4,4-difluoro-N-[(1S)-3-[exo-3-(3-isopropyl-5-methyl-4H-1,2,4-triazol-4-yl)-8-azabicyclo[3.2.1]octane-8-yl]-1-(6-fluoropyridin-2-yl)propyl]cyclohexane-1-carboxamide], the IC50 in data set [11] came to 143 nM. Besides, in [13], the cytotoxic concentration (CC50) was above 200 µg/mL. Moreover, the “EC50” value in [9] (setting [16]) was above 40 µg/mL.
